Measured values reported in US20260337172A1, “AMINOPIPERAZINES WITH BROAD SPECTRUM ANTIMICROBIAL ACTIVITY” (The United States Government as represented by the …, priority 2022, published 2026).
≈ marks a conversion by molar mass, not a printed value. Like-named read-outs stand apart in the source and are kept apart here.

Tested on: C. auris
Experiment: minimum inhibitory concentration, C. auris (Table 3)
Type: cell-based, Candida auris
Conditions: Candidozyma auris
From the text: Table 2 and Table 3 below show the minimum inhibitory concentration values for the synthesized compounds as tested on bacterial strains.

[1] = 50% inhibition, first of two values in cell, read-out: minimum inhibitory concentration, C. auris 50% inhib.
[2] = 50% inhibition, second of two values in cell, read-out: minimum inhibitory concentration, C. auris 50% inhib.
[3] = 90% inhibition, first of two values in cell, read-out: minimum inhibitory concentration, C. auris 90% inhib.
[4] = 90% inhibition, second of two values in cell, read-out: minimum inhibitory concentration, C. auris 90% inhib.

| SMILES | MIC [1] | MIC [2] | MIC [3] | MIC [4] |
| --- | --- | --- | --- | --- |
| C[C@@H]1[C@H](O)[C@@H](C)/C=C/C=C/C=C/C=C/C=C/C=C/C=C/[C@H](O[C@@H]2O[C@H](C)[C@@H](O)[C@H](N)[C@@H]2O)C[C@@H]2O[C@](O)(C[C@@H](O)C[C@@H](O)[C@H](O)CC[C@@H](O)C[C@@H](O)CC(=O)O[C@H]1C)C[C@H](O)[C@H]2C(=O)O [Amphotericin B, reference compound] | 1 µg/mL (≈ 1.08 µM) | 1 µg/mL (≈ 1.08 µM) | 1 µg/mL (≈ 1.08 µM) | 1 µg/mL (≈ 1.08 µM) |
| CN1CCN(/N=C/c2ccc(Cl)c([N+](=O)[O-])c2)CC1 [Compound 3] | 256 µg/mL (≈ 905 µM) | 128 µg/mL (≈ 453 µM) | 256 µg/mL (≈ 905 µM) | 256 µg/mL (≈ 905 µM) |
| CN1CCN(/N=C/c2ccc([N+](=O)[O-])cc2)CC1 [Compound 4] | 256 µg/mL (≈ 1030 µM) | 256 µg/mL (≈ 1030 µM) | > 256 µg/mL | > 256 µg/mL |
| COc1ccc(/C=N/N2CCN(C)CC2)c2ccccc12 [Compound 5, (E)-1-(4-methoxynaphthalen-1-yl)-N-(4-methylpiperazin-1-yl)methanimine] | 128 µg/mL (≈ 452 µM) | 128 µg/mL (≈ 452 µM) | 256 µg/mL (≈ 903 µM) | 256 µg/mL (≈ 903 µM) |
| CN1CCN(/N=C/c2ccc(-c3ccccc3)cc2)CC1 [Compound 17] | 64 µg/mL (≈ 229 µM) | 64 µg/mL (≈ 229 µM) | 128 µg/mL (≈ 458 µM) | 128 µg/mL (≈ 458 µM) |
| COc1cccc(/C=N/N2CCN(C)CC2)c1O [Compound 20] | 128 µg/mL (≈ 513 µM) | 128 µg/mL (≈ 513 µM) | 256 µg/mL (≈ 1030 µM) | 256 µg/mL (≈ 1030 µM) |
